Values joined by “and” are separate entries in the source; they are usually repeats but may differ in a detail not shown here. Equal entries are not always repeated. Numbers after ± are expanded uncertainties.
Columns and labels:
[1] = relative permittivity at zero frequency (dimensionless); conditions: 101 kPa, Liquid, Dekameter
[2] = 101 kPa, Liquid
[3] = refractive index (Na D-line) (dimensionless); conditions: 101.33 kPa, Liquid

relative permittivity at zero frequency ([1]; 293.15 K)	relative permittivity at zero frequency ([1]; 298.15 K)	relative permittivity at zero frequency ([1]; 303.15 K)	relative permittivity at zero frequency ([1]; 313.15 K)	mass density ([2]; 293.15 K) [kg/m3]	mass density ([2]; 298.15 K) [kg/m3]	mass density ([2]; 303.15 K) [kg/m3]	mass density ([2]; 313.15 K)	refractive index ([3]; 293.15 K)	refractive index ([3]; 298.15 K)	refractive index ([3]; 303.15 K)	refractive index ([3]; 313.15 K)	Structure (SMILES)
18.26 ± 0.06	17.54 ± 0.06	16.89 ± 0.06	15.45 ± 0.06	809.52 ± 0.43	805.58 ± 0.43	801.92 ± 0.44	794.26 ± 0.45 kg/m3	1.3992 ± 0.0012	1.3972 ± 0.0012	1.3963 ± 0.0012	1.392 ± 0.0012	CCCCO [butan-1-ol]
17.51 ± 0.06	16.58 ± 0.06	15.75 ± 0.06	14.44 ± 0.06	805.54 ± 0.46	802.06 ± 0.47	798.45 ± 0.47	790.07 ± 0.48 kg/m3	1.3992 ± 0.0012	1.3954 ± 0.0012	1.3948 ± 0.0012	1.391 ± 0.0012	CCC(C)O (stereo unspecified) [butan-2-ol]

Structure (SMILES)	relative permittivity at zero frequency ([1]; 293.15 K)	relative permittivity at zero frequency ([1]; 298.15 K)	relative permittivity at zero frequency ([1]; 303.15 K)	relative permittivity at zero frequency ([1]; 313.15 K)	mass density ([2]; 293.15 K) [kg/m3]	mass density ([2]; 298.15 K) [kg/m3]	mass density ([2]; 303.15 K) [kg/m3]	mass density ([2]; 313.15 K)	refractive index ([3]; 293.15 K)	refractive index ([3]; 298.15 K)	refractive index ([3]; 303.15 K)	refractive index ([3]; 313.15 K)
O=C1CCCO1 [γ-butyrolactone]	42.34 ± 0.06 and 42.81 ± 0.06	41.64 ± 0.06	41.1 ± 0.06	39.92 ± 0.06	1128.79 ± 0.58	1123.75 ± 0.57	1118.79 ± 0.56	1121.76 ± 0.56 kg/m3 and 1108.88 ± 0.54 kg/m3	1.437 ± 0.0013	1.4356 ± 0.0013	1.4334 ± 0.0013	1.429 ± 0.0013
